The assay has as its target human P2X3 receptor (Homo sapiens (Human), UniProt P56373). The assay is described as follows: Evaluation of human P2X3 receptor inhibitory activity (Test Example 1). It counts as cell-based. The following applies: C6BU-1 cell transfected with human P2X3 receptor gene, FLIPR 384. The method, boiled down:
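FLIPR calcium read-out: signal taken as peak fluorescence after ATP addition divided by starting fluorescence, and IC50 calculated from it. Compound added 5 min before 150 nM ATP solution (pre-dispense stock) to Fluo-3-AM-loaded C6BU-1 cells stably transfected with human P2X3; HEPES buffer pH 7.5 with probenecid.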

One may read the IC50 as the point on the concentration scale where inhibition reaches its midpoint. High values mean lower potency, low ones higher potency.

human P2X3 receptor, sequence (P56373 whole entry): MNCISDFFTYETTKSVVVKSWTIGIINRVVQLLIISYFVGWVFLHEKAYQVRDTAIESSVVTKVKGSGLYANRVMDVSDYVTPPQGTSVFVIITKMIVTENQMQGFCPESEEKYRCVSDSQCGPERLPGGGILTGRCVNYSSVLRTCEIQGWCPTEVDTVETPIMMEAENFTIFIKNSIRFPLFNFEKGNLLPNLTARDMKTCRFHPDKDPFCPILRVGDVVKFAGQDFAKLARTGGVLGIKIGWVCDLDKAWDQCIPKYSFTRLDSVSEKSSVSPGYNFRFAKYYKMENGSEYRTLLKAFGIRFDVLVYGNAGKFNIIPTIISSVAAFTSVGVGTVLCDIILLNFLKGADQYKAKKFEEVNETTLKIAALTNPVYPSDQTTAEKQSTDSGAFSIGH

`COC(=O)[C@@H](C)Cn1c(=O)[nH]/c(=N\c2ccc(Oc3ncccc3C(F)(F)F)cc2)n(Cc2ccc(Cl)cc2)c1=O` [Compound I-030] returned an IC50 of 176 nM.
Consider `O=C(O)CCn1c(=O)[nH]/c(=N\c2ccc(Oc3ccccn3)c(Cl)c2)n(Cc2ccc(Cl)cc2)c1=O` [Compound R-297], for which the IC50 was found to be 8 nM.
In turn, `COC(=O)CCn1c(=O)[nH]/c(=N\c2ccc(Oc3ccccn3)c(Cl)c2)n(Cc2ccc(Cl)cc2)c1=O` [Compound R-300] had a half-inhibitory concentration (IC50) of 8 nM.
For `O=c1[nH]/c(=N\c2ccc(Oc3ccccn3)cc2)n(Cc2ccc(Cl)cc2)c(=O)n1CCCOC1CCCCO1` (stereo not drawn) [Compound R-248], the IC50 was 5 nM.
For `COC(=O)[C@@H](C)Cn1c(=O)[nH]/c(=N\c2ccc(Oc3cc(F)nc(F)c3)cc2)n(Cc2ccc(Cl)cc2)c1=O` [Compound R-040] the value was 7 nM; for `COCc1cccc(Oc2ccc(/N=c3\[nH]c(=O)n(C[C@H](C)C(=O)O)c(=O)n3Cc3ccc(Cl)cc3)cc2)n1` [Compound I-255], 18 nM; for `C[C@@H](Cn1c(=O)[nH]/c(=N\c2ccc(Oc3ccc(F)nn3)cc2)n(Cc2ccc(Cl)cc2)c1=O)C(=O)O` [Compound R-196], 11 nM.
`COC(=O)CCn1c(=O)[nH]/c(=N\c2ccc(Oc3ccc(Cl)cn3)cc2)n(Cc2ccc(C)cc2)c1=O` [Compound R-289] returned an IC50 of 5 nM.
In turn, `Cc1ccc(Cn2c(=O)n(C[C@H](C)C(=O)O)c(=O)[nH]/c2=N\c2ccc(Oc3cccc(CF)n3)cc2)cc1` [Compound I-261] displayed an IC50 of 8 nM.
In turn, `Cc1nc(Oc2ccc(/N=c3\[nH]c(=O)n(C[C@H](C)C(=O)O)c(=O)n3Cc3ccc(Cl)cc3)cc2)no1` [Compound R-114] had an IC50 of 39 nM.
`CCOC(=O)[C@H]1C[C@@H](Oc2ccc(/N=c3\[nH]c(=O)n(CC)c(=O)n3Cc3ccc(Cl)cc3)cc2)C1` [Compound R-062] had a 50% inhibitory concentration (IC50) of 318 nM.
For `CCc1ccc(Oc2ccc(/N=c3\[nH]c(=O)n(C[C@H](C)C(=O)OC)c(=O)n3Cc3ccc(C)cc3)cc2)nc1` [Compound I-270] the value was 4 nM.
Next, `COC(=O)[C@@H](C)Cn1c(=O)[nH]/c(=N\c2ccc(OC3CCC3)c(F)c2)n(Cc2ccc(Cl)cc2)c1=O` [Compound R-072]: 16 nM; `CC(C)n1c(=O)[nH]/c(=N\c2ccc(Oc3cccc(C(=O)O)n3)c(Cl)c2)n(Cc2ccc(Cl)cc2)c1=O` [Compound R-012]: 5 nM.
Next, `COC(=O)CCn1c(=O)[nH]/c(=N\c2ccc(Oc3ccccn3)c(F)c2)n(Cc2ccc(Cl)cc2)c1=O` [Compound R-293]: 4 nM; `O=C(O)Cn1c(=O)[nH]/c(=N\c2ccc(Oc3ccc(Cl)cn3)cc2)n(Cc2ccc(Cl)cc2)c1=O` [Compound R-312]: 350 nM; `COC(=O)C[C@@H](C)n1c(=O)[nH]/c(=N\c2ccc(Oc3ccc(F)cn3)cc2)n(Cc2ccc(Cl)cc2)c1=O` [Compound I-160]: 5 nM.
Take `COC(=O)C(C)(C)Cn1c(=O)[nH]/c(=N\c2ccc(Oc3ccc(Cl)cn3)cc2)n(Cc2ccc(Cl)cc2)c1=O` [Compound I-004]: the IC50 was determined as 14 nM.
Next, `CC(=O)c1ccc(Oc2ccc(/N=c3\[nH]c(=O)n(C[C@H](C)C(=O)O)c(=O)n3Cc3ccc(C)cc3)cc2)nc1` [Compound I-260]: 5 nM; `COC(=O)[C@@H](C)Cn1c(=O)[nH]/c(=N\c2ccc(Oc3ccncc3)cc2)n(Cc2ccc(Cl)cc2)c1=O` [Compound R-206]: 5 nM.
Next, `COC(=O)C(C)(C)Cn1c(=O)[nH]/c(=N\c2ccc(Oc3ccnc(C(=O)O)c3)cc2)n(Cc2ccc(Cl)cc2)c1=O` [Compound R-105]: 7 nM; `Cc1cc(/N=c2\[nH]c(=O)n(C[C@H](C)C(=O)O)c(=O)n2Cc2ccc(Cl)cc2)ccc1Oc1cnccn1` [Compound R-130]: 9 nM; `CC(C)(C)n1c(=O)[nH]/c(=N\c2ccc(Oc3cccc(C(N)=O)n3)cc2)n(Cc2ccc(Cl)cc2)c1=O` [Compound R-233]: 318 nM.
Next, `CCc1[nH]c2ccc(/N=c3\[nH]c(=O)n(C[C@H](C)C(=O)OC)c(=O)n3Cc3ccc(Cl)cc3)cc2c1C` [Compound R-068]: 40 nM; `COC(=O)CCn1c(=O)[nH]/c(=N\c2ccc(Oc3ccccn3)cc2)n(Cc2ccc(C)cc2)c1=O` [Compound R-226]: 3 nM.
`COC(=O)C(C)(C)Cn1c(=O)[nH]/c(=N\c2ccc(Oc3ccc(OC(F)F)cn3)cc2)n(Cc2ccc(Cl)cc2)c1=O` [Compound I-021]: the midpoint of inhibition, the IC50, lay at 25 nM.
Next, `COC(=O)[C@@H](C)Cn1c(=O)[nH]/c(=N\c2ccc(O[C@H](C)C(F)(F)F)c(F)c2)n(Cc2ccc(Cl)cc2)c1=O` [Compound R-090]: 70 nM; `CCOC(=O)[C@H]1C[C@@H](n2c(=O)[nH]/c(=N\c3ccc(Oc4ccc(F)cn4)cc3)n(Cc3ccc(C)cc3)c2=O)C1` [Compound I-177]: 6 nM; `C[C@@H](Cn1c(=O)[nH]/c(=N\c2ccc(Oc3cncc(Cl)c3)cc2)n(Cc2ccc(Cl)cc2)c1=O)C(=O)O` [Compound R-081]: 5 nM.
Next, `COC(=O)[C@@H](C)Cn1c(=O)[nH]/c(=N\c2ccc(Oc3cccc(CF)n3)cc2)n(Cc2ccc(C)cc2)c1=O` [Compound I-266]: 8 nM; `COC(=O)[C@@H](C)Cn1c(=O)[nH]/c(=N\c2ccc(Oc3ccc(CO)cn3)cc2)n(Cc2ccc(Cl)cc2)c1=O` [Compound I-083]: 6 nM; `COc1cccc(Oc2ccc(/N=c3\[nH]c(=O)n(C[C@H](C)C(=O)O)c(=O)n3Cc3ccc(C)cc3)cc2)n1` [Compound I-218]: 10 nM.
Turning to `CNC(=O)Cn1c(=O)[nH]/c(=N\c2ccc(Oc3ccccn3)cc2)n(Cc2ccc(Cl)cc2)c1=O` [Compound R-241], the midpoint of inhibition, the IC50, lay at 9 nM.
For `COC(=O)C(C)(C)Cn1c(=O)[nH]/c(=N\c2ccc(Oc3cccc(Cl)n3)cc2)n(Cc2ccc(Cl)cc2)c1=O` [Compound I-012] the value was 25 nM; for `CCn1c(=O)[nH]/c(=N\c2ccc(Oc3cc(Cl)c(C(=O)O)cn3)cc2)n(Cc2ccc(Cl)cc2)c1=O` [Compound R-054], 26 nM.
Consider `Cc1ccc(Cn2c(=O)n(C[C@H](C)C(=O)O)c(=O)[nH]/c2=N\c2ccc(Oc3ccc(Cl)cn3)cc2)cc1` [Compound I-100], for which the IC50 is 4 nM.
For `COC(=O)C(C)Cn1c(=O)[nH]/c(=N\c2ccc(Oc3ccc(OC(F)F)cn3)cc2)n(Cc2ccc(Cl)cc2)c1=O` (stereo not drawn) [Compound R-026] the value was 8 nM.
For `COC(=O)[C@H](Cn1c(=O)[nH]/c(=N\c2ccc(Oc3cccc(F)n3)cc2)n(Cc2ccc(Cl)cc2)c1=O)OC` [Compound I-122] the value was 4 nM; for `CC(C)(C)n1c(=O)[nH]/c(=N\c2ccc(Oc3ccc(-c4cccc(C(=O)O)c4)cn3)cc2)n(Cc2ccc(Cl)cc2)c1=O` [Compound R-001], 7 nM.
As to `C[C@@H](Cn1c(=O)[nH]/c(=N\c2ccc(Oc3ccnc(Cl)c3)cc2)n(Cc2ccc(Cl)cc2)c1=O)C(=O)O` [Compound R-088], the IC50 is 6 nM.
Next, `C[C@@H](C(=O)O)[C@H](C)n1c(=O)[nH]/c(=N\c2ccc(Oc3cnc(C#N)cn3)cc2)n(Cc2ccc(Cl)cc2)c1=O` [Compound R-224]: 12 nM; `COC(=O)[C@@H](C)Cn1c(=O)[nH]/c(=N\c2ccc(Oc3cccc(Cl)n3)cc2)n(Cc2ccc(C)cc2)c1=O` [Compound I-115]: 6 nM.
